Several values for one entry are separate records, joined by “and”; a condition that tells them apart may be missing. Equal values may be shown once. Inconclusive results and toxic doses are left out. The calls were made as follows: active = survival T/C of 150% or more; inactive = T/C below 125% in these data. Square brackets hold non-standard residues; d marks the D form. Peptide text beside a SMILES is read from it. * marks the point of attachment. ξ: configuration not given here. Cbz = O=C(OCc1ccccc1)*; ξNva = CCCC(N)C(=O)O
System: P388 leukemia ip, CD2F1 mice, survival T/C
Assay: NCI In Vivo Anticancer Drug Screen. Data for tumor model P388 Leukemia (intraperitoneal) in CD2F1 (CDF1) mice
Conditions: endpoint: median survival time, higher = longer survival
Method in brief: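 Mice carrying the transplanted tumor received test compound or vehicle. Survival was recorded in each group, and the value is the treated-group measurement divided by that of the vehicle-treated control group.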

[1] = dose: 100.0 mg/kg/injection, schedule: Q01DX005 (ip), vehicle: saline with Tween-80
[2] = dose: 60.0 mg/kg/injection, schedule: Q01DX005 (ip), vehicle: saline with Tween-80
[3] = dose: 120.0 mg/kg/injection, schedule: Q01DX005 (ip), vehicle: saline with Tween-80
[4] = dose: 240.0 mg/kg/injection, schedule: Q01DX005 (ip), vehicle: saline with Tween-80
[5] = dose: 50.0 mg/kg/injection, schedule: Q01DX005 (ip), vehicle: Klucel (hydroxypropylcellulose) (HPC)
[6] = dose: 100.0 mg/kg/injection, schedule: Q01DX005 (ip), vehicle: Klucel (hydroxypropylcellulose) (HPC)
[7] = dose: 100.0 mg/kg/injection, schedule: Q01DX009 (ip), vehicle: saline with Tween-80
[8] = dose: 200.0 mg/kg/injection, schedule: Q01DX009 (ip), vehicle: saline with Tween-80
[9] = dose: 400.0 mg/kg/injection, schedule: Q01DX009 (ip), vehicle: saline with Tween-80
[10] = dose: 50.0 mg/kg/injection, schedule: Q01DX009 (ip), vehicle: saline with Tween-80

Measured: T/C

CCCCNC(=O)C(C)OC(C)=O (configuration not stated)
inactive: dose: 50.0 mg/kg/injection, schedule: Q01DX005 (ip), vehicle: saline with Tween-80 96 % of control | [1] 99 % of control | dose: 200.0 mg/kg/injection, schedule: Q01DX005 (ip), vehicle: saline with Tween-80 96 % of control

CC1(C)CC(C#N)CC(C)(C)N1O
inactive: dose: 100.0 mg/kg/injection, schedule: Q04DX003 (ip), vehicle: Klucel (hydroxypropylcellulose) (HPC) 100 % of control

Cc1ccc(N2CC3CC4(C)C=CC3(C2)O4)cc1 (configuration not stated)
inactive: [2] 103 % of control | [3] 111 % of control | [4] 98 % of control

O=C(O)C(S)Cc1cnc[nH]1 (configuration not stated)
inactive: dose: 100.0 mg/kg/injection, schedule: Q04DX002 (ip), vehicle: saline 99 % of control | dose: 200.0 mg/kg/injection, schedule: Q04DX002 (ip), vehicle: saline 99 % of control

CCCC(NC(=O)CNC(=O)OCc1ccccc1)C(=O)O (stereo not drawn) (Cbz-Gly-[ξNva]-OH)
inactive: [5] 104 % of control | [6] 98 % of control

Cc1ccc(NC(=O)c2ccc(Cl)cc2Cl)cc1C
inactive: [7] 95 % of control | [8] 104 % of control | [9] 100 % of control

NC(=S)N/N=C/c1ccc(C(F)(F)F)cn1
inactive: dose: 3.8 mg/kg/injection, schedule: Q01DX009 (ip), vehicle: Klucel (hydroxypropylcellulose) (HPC) 96 % of control | dose: 5.8 mg/kg/injection, schedule: Q01DX009 (ip), vehicle: Klucel (hydroxypropylcellulose) (HPC) 93 % of control | dose: 6.0 mg/kg/injection, schedule: Q01DX009 (ip), vehicle: Klucel (hydroxypropylcellulose) (HPC) 107 % of control | dose: 8.8 mg/kg/injection, schedule: Q01DX009 (ip), vehicle: Klucel (hydroxypropylcellulose) (HPC) 93 % of control | dose: 8.9 mg/kg/injection, schedule: Q01DX009 (ip), vehicle: Klucel (hydroxypropylcellulose) (HPC) 114 % of control | dose: 13.3 mg/kg/injection, schedule: Q01DX009 (ip), vehicle: Klucel (hydroxypropylcellulose) (HPC) 114 % of control and 93 % of control | dose: 20.0 mg/kg/injection, schedule: Q01DX009 (ip), vehicle: Klucel (hydroxypropylcellulose) (HPC) 101 % of control and 121 % of control | dose: 30.0 mg/kg/injection, schedule: Q01DX009 (ip), vehicle: Klucel (hydroxypropylcellulose) (HPC) 114 % of control

N#CC(C(=O)C(=O)Nc1ccccc1)c1c(Cl)cccc1Cl (configuration not stated)
inactive: [2] 98 % of control | [3] 104 % of control | [4] 98 % of control

CCCCCCCCCCCC[N+](C)(CCS(=O)(=O)[O-])Cc1ccccc1 (configuration not stated)
inactive: [1] 108 % of control

Cc1cc(Cl)ccc1NC(=O)/N=C1\NC(=O)CS1
inactive: [10] 87 % of control | [7] 100 % of control | [8] 110 % of control

CSC#CC(Sc1c(Cl)c(Cl)c(Cl)c(Cl)c1Cl)=C(Sc1c(Cl)c(Cl)c(Cl)c(Cl)c1Cl)Sc1c(Cl)c(Cl)c(Cl)c(Cl)c1Cl
inactive: [10] 99 % of control | [7] 93 % of control | [8] 92 % of control

CCCCN(CCCC)CC1CC(C(C)(C)C)CCC1O (configuration not stated)
inactive: [5] 91 % of control | [6] 91 % of control

CC(=O)NC(Cc1ccc(F)cc1)C(=O)O (configuration not stated)
inactive: [10] 101 % of control and 109 % of control | [7] 102 % of control and 109 % of control | [8] 107 % of control and 95 % of control | [9] 107 % of control and 113 % of control | dose: 600.0 mg/kg/injection, schedule: Q01DX009 (ip), vehicle: saline with Tween-80 112 % of control and 124 % of control

CN(C)c1c2ccccc2c(NC=O)c2ccccc12
inactive: dose: 60.0 mg/kg/injection, schedule: Q01DX005 (ip), vehicle: Klucel (hydroxypropylcellulose) (HPC) 102 % of control | dose: 120.0 mg/kg/injection, schedule: Q01DX005 (ip), vehicle: Klucel (hydroxypropylcellulose) (HPC) 95 % of control | dose: 240.0 mg/kg/injection, schedule: Q01DX005 (ip), vehicle: Klucel (hydroxypropylcellulose) (HPC) 86 % of control

Source: PubChem BioAssay AID330 (DTP/NCI, 2004)
